Measurements from US20260125388A1 (priority 2022, published 2026).
≈ marks a conversion by molar mass, not a printed value. Where two headings read alike, the source gives them in different places.

Experiments:
[1] = Aqueous solubility, shake flask in PBS buffer; type: physicochemical; conditions: for Aqueous solubility (footnote b: mM) / solubility at 24 h: pH 7.2, cells marked b; for Aqueous solubility: pH 7.2; for solubility at 24 h: PBS buffer, aqueous buffer, thermodynamic from solid, read-out: Aqueous solubility (footnote b: mM)
Method: 5-50 mg of compound was added to 500 μL of PBS buffer at pH 7.4. The pH was adjusted if necessary, using a 1M NaOH solution. The solutions were vortexed for 10 s, sonicated for 2 min and agitated with a horizontal shaker in a closed vial for 24 h. The mixtures were transferred to an Eppendorf tube and centrifuged for 5 min at 16000×g followed by filtration through […] cellulose acetate spin X centrifuge filter (Costar). 200 μL of filtrate was transferred to a new Eppendorf tube and 200 μL of methanol was added and then subsequent dilution was made in 50:50 methanol/PBS buffer water if necessary. After mixing, 50 μL were transferred into a 384 well plate (Coring UV star, 781801) for UV detection at 250-600 nm (Tecan M1000). The assay was carried out with three independent samples of each compound. The concentration of each solution was determined with a calibration curve in 50:50 methanol/PBS buffer water. Absorbance of corresponding methanol PBS blank were recorded and subtracted from the absorbance of calibration curve solutions and from the samples.

[2] = system: HEK293 cells; experiment: Cytotoxicity, CellTiter-Glo cell viability assay; type: cell-based, human; conditions: for Cytotoxicity LD50: HEK293 cells, CellTiter-Glo, Table 3; for LD50 HEK293: human kidney cells, Table 2
Method: Compounds with increased cytotoxicity can be identified using an in vitro cytotoxicity assay. Therefore, human embryonic kidney 293T (HEK293T) cell lines were purchased (ATCC) and cultured in 75 cm2 flasks (CellStar). Cells were grown in DMEM/High Glucose (Hyclone, #SH3024301) media to which non-essential amino acids (Hyclone, #SH30238.01), 10 mM HEPES (Hyclone, #SH302237.01), 5×106 units of penicillin and streptomycin (Hyclone, #SV30010), and 10% of heat inactivated fetal bovine serum (Gibco, #10082147) were added. Cells were harvested using 0.05% Trypsin (Hyclone, #SH3023601). The cell viability assay was evaluated using CellTiter-Glo™ Luminescent Cell Viability Assay Kit (Promega, Madison, WI), which contains luciferase and all its substrate except ATP. The controls for the cytotoxicity assay used were (E)-10-(bromotriphenylphosphoranyl)decyl 4-(4-(tert-butyl)phenyl)-4-oxobut-2-enoate (400 μM in DMSO, positive control) and DMSO (negative control). All luminescence readings were performed on a Tecan Infinite M1000 plate reader. Small volume transfers were performed on the Tecan Freedom EVO liquid handling system with a 100 nL pin tool transfer (V&P Scientific). Serial dilutions were done in 96-well polypropylene plates (Coming, #3365) and assays were conducted in 384-well white optical bottom plates. The assays were carried out in quadruplet in three independent runs. The data were normalized to the controls and if possible analyzed by nonlinear regression (GraphPad Prism).

[3] = parallel artificial membrane permeation assay at pH 7.4
Method: The artificial membrane was prepared by carefully pipetting 15 μL of the 5% (v/v) hexadecane in hexane solution to each of the wells of the donor plate. The plate was placed into a fume hood for 1 h to ensure complete evaporation of the hexane. After the hexane had evaporated, 300 μL of PBS with 5% (v/v) DMSO was added to each of the wells of the acceptor plate. The hexadecane treated donor plate was then placed on top of the acceptor plate taking care that the underside of the membrane is completely in contact with the solution in each of the acceptor wells. […] The lid was placed on the plates and the entire plate sandwich was placed into a closed humid environment. The container was then placed on a reciprocal shaker for agitation at about 100 rpm. The time at the beginning of the incubation was recorded, as this is a thermodynamic-based assay. The incubation was then allowed to continue for 18 h. The donor plate was removed and 50 μL of the acceptor solution was transferred to the UV plate. Drug solutions at the theoretical equilibrium concentration (100 μM) was also prepared and transferred to the UV plate. The absorbance of the solutions in the UV plate was then scanned from 250-600 nm with 1 nm steps and a 5 nm bandwidth. Log Pe was calculated as follows (Equation 1).

[4] = system: GABAA receptor; experiment: GABAA receptor binding, competition assay with [3H]-flunitrazepam and rat brain membranes; conditions: for GABAAR binding, % inhibition at 10 μM: Table 3
Method: GABAA receptor binding: Rat brain membranes were prepared from frozen tissue that was thawed on ice and homogenized on ice in 10 volumes of cold lysis buffer (50 mM Tris HCl, pH 7.4, containing protease inhibitor cocktail from Roche) using a Polytron homogenizer (6 pulses and 10 seconds per pulse). The homogenate was centrifuged at 1,000×g for 10 min at 4° C. to obtain the supernatant. The supernatant was then centrifuged at 40,000×g for 20 min, and the resulting supernatant decanted and replaced with the same ice-cold lysis buffer. Two or three additional rounds of homogenization-centrifugation were performed to ensure thorough homogenization and also to wash out endogenous ligands. The final pellet was resuspended in the same buffer and homogenized one last time. […] Total binding and nonspecific binding were determined with reference compound clonazepam. […] Scintillation cocktail is then melted onto the microwave-dried filters on a hot plate and radioactivity counted in a Microbeta counter. The data (n=6) were analyzed by nonlinear regression.

[5] = 3H-flunitrazepam, rat brain extract
[6] = [3H]-flunitrazepam, rat brain, Table 1
[7] = read-out: GABAAR binding (IC50), value in brackets, 3H-flunitrazepam, rat brain extract, Table 3, unit inferred

SMILES	Aqueous solubility (footnote b: mM) [1]	Cytotoxicity LD50 [2] [µM]	LD50 HEK293 [2] [µM]	Permeability (log Pe (cm/s)) [3] [cm/s]	GABAAR binding, % inhibition at 10 μM [4, 5]	% Inhibition at 10 μM [4, 6] [%]	IC50 [4, 7] [nM]	Aqueous solubility [1] [µM]	solubility at 24 h [1] [mM]	IC50 [4, 6] [nM]
O=C(O)c1ncn2c1C1(CCCC1)N=C(c1ccccc1F)c1cc(Br)ccc1-2 [Compound 28, 8-bromo-6-(2-fluorophenyl)spiro[benzo[f]imidazo[1,5-a][1,4]diazepine-4,1′-cyclopentane]-3-carboxylic acid]	46.7 ± 0.6 ^b mM	>300	>400	−6.7 ± 0.04	2 (n.d.) %	23.8				
O=C(O)c1ncn2c1C1(CC1)N=C(c1ccccc1F)c1ccccc1-2 [Compound 32, 6-(2-fluorophenyl)spiro[benzo[f]imidazo[1,5-a][1,4]diazepine-4,1′-cyclopropane]-3-carboxylic acid]	15.1 ± 0.1 ^b mM	>300	>400	−7.0 ± 0.14	74%		289			
CCOC(=O)c1ncn2c1C1(CC1)N=C(c1ccccc1F)c1cc(Br)ccc1-2 [Compound 9]		>120		−5.1 ± 0.10	94%		87	141 ± 20		
O=C(O)c1ncn2c1C1(CCCC1)N=C(c1ccccc1F)c1cc(C3CC3)ccc1-2 [Compound 25, 8-cyclopropyl-6-(2-fluorophenyl)spiro[benzo[f]imidazo[1,5-a][1,4]diazepine-4,1′-cyclopentane]-3-carboxylic acid]			>400			31.4				
O=C1Nc2ccc(Cl)cc2C(c2ccccc2F)=NC12CC2 [Compound 6]		>150		−5.2 ± 0.15	90%		665	39 ± 3		
CC1(C)N=C(c2ccccc2F)c2cc(Br)ccc2NC1=O [Compound 8]		>150		−5.7 ± 0.01	70%		1250	319 ± 24		
O=C(O)c1ncn2c1C1(CC1)N=C(c1ccccc1F)c1cc(Cl)ccc1-2 [Compound 30, 8-chloro-6-(2-fluorophenyl)spiro[benzo[f]imidazo[1,5-a][1,4]diazepine-4,1′-cyclopropane]-3-carboxylic acid]	36.2 ± 0.4 ^b mM	>300	>400	−6.6 ± 0.03	18 (n.d.) %					
O=C(O)c1ncn2c1C1(CC1)N=C(c1ccccc1F)c1cc(Br)ccc1-2 [Compound 26, 8-bromo-6-(2-fluorophenyl)spiro[benzo[f]imidazo[1,5-a][1,4]diazepine-4,1′-cyclopropane]-3-carboxylic acid]		>300	>400	−6.8 ± 0.09	97%	97.0	9		8.2 (≈ 3500 µg/mL)	9.1
CC1(C)N=C(c2ccccc2F)c2cc(Br)ccc2-n2cnc(C(=O)O)c21 [Compound 34, 8-bromo-6-(2-fluorophenyl)-4,4-dimethyl-4H-benzo[f]imidazo[1,5-a][1,4]diazepine-3-carboxylic acid]		>300	>400	−7.0 ± 0.22	74%	74.4	4050		4.4 (≈ 1880 µg/mL)	4050
O=C1Nc2ccc(Br)cc2C(c2ccccc2F)=NC12CC2 [Compound 2]		>150		−5.6 ± 0.05	97%		42	321 ± 19		
O=C(O)c1ncn2c1C1(CCCC1)N=C(c1ccccc1F)c1ccccc1-2 [Compound 33, 6-(2-fluorophenyl)spiro[benzo[f]imidazo[1,5-a][1,4]diazepine-4,1′-cyclopentane]-3-carboxylic acid]			>400			4.7				
O=C(O)c1ncn2c1C1(CCCC1)N=C(c1ccccc1F)c1cc(Cl)ccc1-2 [Compound 31, 8-chloro-6-(2-fluorophenyl)spiro[benzo[f]imidazo[1,5-a][1,4]diazepine-4,1′-cyclopentane]-3-carboxylic acid]			>400			47.8				
C#Cc1ccc2c(c1)C(c1ccccc1F)=NC1(CCCC1)c1c(C(=O)O)ncn1-2 [Compound 21, 8-ethynyl-6-(2-fluorophenyl)spiro[benzo[f]imidazo[1,5-a][1,4]diazepine-4,1′-cyclopentane]-3-carboxylic acid]			>400			0				
CCOC(=O)c1ncn2c1C(C)(C)N=C(c1ccccc1F)c1cc(Br)ccc1-2 [Compound 15]		>150		−6.0 ± 0.12	78%		733	103 ± 5		
O=C(O)c1ncn2c1C1(CC1)N=C(c1ccccc1F)c1cc(C3CC3)ccc1-2 [Compound 24, 8-cyclopropyl-6-(2-fluorophenyl)spiro[benzo[f]imidazo[1,5-a][1,4]diazepine-4,1′-cyclopropane]-3-carboxylic acid]	12.8 ± 0.1 ^b mM	>300	>400	−6.4 ± 0.04	58%		1830			
O=C(O)c1ncn2c1C1(CCCCC1)N=C(c1ccccc1F)c1cc(Br)ccc1-2 [Compound 29, 8-bromo-6-(2-fluorophenyl)spiro[benzo[f]imidazo[1,5-a][1,4]diazepine-4,1′-cyclohexane]-3-carboxylic acid]	46.9 ± 1.3 ^b mM	>300	>400	−6.6 ± 0.10	24 (n.d.) %	1.9				
CCOC(=O)c1ncn2c1C1(CCCCC1)N=C(c1ccccc1F)c1cc(Br)ccc1-2 [Compound 13]		>150		−5.6 ± 0.04	34 (n.d.) %			54 ± 2		
